Assay results taken from patent US10864182B2, “Treatment of fragile X syndrome” (Healx Limited, priority 2018, dated 2020).
“Also recorded” adds a separate entry of the source.

Assays:
Type in all cases: in vivo
[1] = test system: Fmr1 KO2 mice; experiment: Contextual fear conditioning; settings: 5 mg/kg by subcutaneous osmotic minipump, 15 days, KO not different from WT
From the text: (§1) Fmr1 knockout 2 (Fmr1 KO2) mice were generated by deletion of the promoter and first exon of Fmr1. The Fmr1 KO2 it is both, protein and mRNA null. In this study we used Fmr1 KO2 and wild-type (WT) littermates generated on a C57BL/6J background and repeatedly backcrossed onto a C57BL/6J background for more than eight generations.
(§2) There were four treatment groups per compound in the study with 10 male mice used per treatment group (all at 8 weeks of age): Group 1: Fmr1 KO2 mice treated with vehicle (Fmr1 KO2-V), Group 2: wild-type littermate mice treated with vehicle (WT-V), Group 3: Fmr1 KO2 mice treated with sulindac (Fmr1 KO-Sulindac) and Group 4: wild-type littermate mice treated with sulindac (WT-Sulindac)
(§3) Sulindac: 5 mg/kg by osmotic minipumps (ALZET Osmotic Pumps Cupertino, Calif., USA) implanted subcutaneously for 15 days delivery.
For experiments, all mice were tested once in the same apparatus. Prior to testing, mice were placed in the apparatus for some minutes before the experiment. The apparatus was cleaned with moist and dry tissues before testing each mouse. […] We assessed weight loss, fur loss, walking, eyes open, eye discharges and general behavior. […]
(§4) Data were analyzed by two-way analysis of variance (ANOVA) followed by post-test comparisons where appropriate using Tukey's Multiple Comparison Test. […]

[2] = test system: Fmr1 KO2 mice; experiment: Open field (hyperactivity); settings: 5 mg/kg by subcutaneous osmotic minipump, 15 days chronic treatment, 3 min observation
From the text: as §1
There were four treatment groups per compound in the study with 10 male mice used per treatment group (all at 8 weeks of age): Group 1: Fmr1 KO2 mice treated with vehicle (Fmr1 KO2-V), Group 2: wild-type littermate mice treated with vehicle (WT-V), Group 3: Fmr1 KO2 mice treated with sulindac (Fmr1 KO-Sulindac) and Group 4: wild-type littermate mice treated with sulindac (WT-Sulindac) […]
(§5) For experiments, all mice were tested once in the same apparatus. […] We assessed weight loss, fur loss, walking, eyes open, eye discharges and general behavior.
The open-field apparatus was used to test hyperactivity. […] The number of squares entered by the whole body (locomotor activity) was counted. The movement of the mouse around the field was recorded with a video tracking device for 3 min (version NT4.0, Viewpoint).
as §4

[3] = test system: Fmr1 KO2 mice; experiment: Nesting; settings: 5 mg/kg by subcutaneous osmotic minipump, 15 days, listed as sulindac
From the text: as §1, §2, §3, §5
The test was performed in individual cages. […] Mice were placed individually into the nesting cages 1 hr. before the dark phase, and the results were assessed the next morning. Nest building was scored on a 5 point scale. […]
as §4

[4] = test system: Fmr1 KO2 mice; experiment: Three-chambered sociability task (social interaction); settings: 5 mg/kg by subcutaneous osmotic minipump, 15 days
From the text: as §1, §2, §3, §5
In the three-chambered sociability task, a subject mouse was evaluated for its exploration of a novel social stimulus (novel mouse). […] The time spent exploring the novel mice was scored as exploration ratio.
as §4

Question: Which results are given for `CC1=C(CC(=O)O)c2cc(F)ccc2/C1=C\c1ccc([S+](C)[O-])cc1` (stereo not drawn) [Sulindac, (Z)-5-fluoro-2-methyl-1-[[p-(methylsulfinyl)phenyl]methylene]-1H-indene-3-acetic acid]?
Answer: freezing in contextual memory test (learning and memory) ([1]; p=0.3968): ameliorates the Fmr1 KO deficit in learning and memory; freezing in contextual memory test (learning and memory) ([1]; p=0.3968, listed as sulindac): partially rescuing; hyperactivity in open field (locomotor activity, number of squares entered) [2]: fully rescuing; also recorded: normalizes hyperactivity; nesting behavior (nest building score, 5 point scale) [3]: fully rescuing; also recorded: normalization in nesting behavior; sociability (exploration index of the novel mouse) [4]: partially improved such impairment; sociability (exploration index of the novel mouse) ([4]; listed as sulindac): partially rescuing
